Experimental findings from patent US7534871B2, “Preparation and use of carbohydrate-based bicyclic ring structures with antimicrobial and cytostatic activity” (Kemin Pharma B.V.B.A., priority 2004, dated 2009) are described below.

For experiment [1], the system named is Microsporum gypseum IHEM 3999 - ATCC 14683. Put plainly: Anti-fungal activity, Bioscreen C growth curve: Microsporum gypseum (mold). Type of experiment: cell-based. The conditions noted are these: for activity at 25 ppm: Nannizzia gypsea, ATCC14683, 120 h, 25° C., 5 days, negative control = 100, read-out: % of growth at a dose of 25 PPM compared to the negative control, Microsporum gypseum IHEM 3999 - ATCC 14683. The procedure: (§1) For the determination of the anti-bacterial and anti-fungal activity the Bioscreen C Analyser Labsystems, Finland, was used. This is an automated reader-incubator. It measures growth continuously by vertical photometry (optical density), processes the data and provides a print out of the results. The area under the growth curve is automatically determined via the Biolink software.
The inoculum size of the mould is standardized to 0.4-5.0×10^4 CFU/ml.
(§2) For bacteria, the 100-honey-well plates containing test chemical, Mueller-Hinton broth and inoculum (=sample) are incubated at 35° C. for 16 hours. Also wells without inoculum are incubated (=blanco). Yeasts are incubated 35° C. for 24 hours in RPMI 1640+MOPS buffer at 165 mM. Moulds also in RPMI 1640+MOPS buffer at 165 mM are incubated 25° C. for 5 days. All micro-organisms are screened against a known concentration of the reference antibiotics or antimycotics such as vancomycin, penicillin G, gentamicin or amphotericin B. The growth curve and the area under the growth curve can be determined using the Biolink software; this is illustrated in FIG. 1.
(§3) The area of the blanco is subtracted from the area of the sample, this number (delta) gives us an indication of the biological activity of the molecules tested and can be expressed as a % of growth at a specific dose compared to a negative control that has a value of 100, illustrated in FIG. 2. Screening of each dose of a specific compound is repeated 5 times. The dose used for all new molecules in all tests is 25 PPM or 25 μg/ml.
(§4) In Table 5 the anti-fungal activity is given for the new molecules. The micro-organisms used were Candida albicans (a typical yeast) and Microsporum gypseum (a typical mold).
(§5) Also for the determination of the anti-fungal activity the Bioscreen C Analyser Labsystems Oy, Finland was used. It measures growth continuously by vertical photometry (optical density), processes the data and provides a print out of the results. The area under the growth curve is automatically determined via the Biolink software.
(§6) The inoculum size of the yeast is standardized to 0.5-2.5×10^3 CFU/ml. The inoculum size of the mould is standardized to 0.4-5.0×10^4 CFU/ml. Yeasts are incubated 35° C. for 24 hours in RPMI 1640+MOPS buffer at 165 mM. Moulds also in RPMI 1640+MOPS buffer at 165 mM are incubated 25° C. for 5 days.
(§7) As a control, all micro-organisms are screened against some reference antibiotics with known MIC. Screening of each dose of a specific compound is repeated 5 times.

Experiment [2] relates to S. aureus ATTC29213 LMG10147. Put plainly: Anti-bacterial activity, Bioscreen C growth curve: S. aureus. Type of experiment: cell-based. Particulars: Staphylococcus aureus, 35° C., 16 hours, negative control = 100, read-out: % of growth at 25 PPM compared to the negative control, S. aureus ATTC29213 LMG10147. The procedure:
as §1
(§8) The inoculum size of the bacteria is standardized to approximately 5×10^5 CFU/ml.
as §2, §3
(§9) In Table 4 the results of the anti-bacterial activity is given for the new molecules. The micro-organisms used are Staphylococcus aureus, MRSA, VRE, Enterococcus faecalis, Salmonella typhimurium and Pseudomonas aeruginosa.

For another experiment, the system named is MRSA ATCC33591. Put plainly: Anti-bacterial activity, Bioscreen C growth curve: MRSA. Type of experiment: cell-based, methicillin-resistant Staphylococcus aureus (MRSA). The conditions noted are these: for activity at 25 ppm: Staphylococcus aureus, ATCC 33591 / LMG10147 / MRSA, 35° C., 16 hours, negative control = 100, read-out: % of growth at 25 PPM compared to the negative control, MRSA ATCC33591 LMG10147. The procedure: as §1, §8, §2, §3, §9

The next experiment deals with VRE ATCC700221. Kind of experiment: Anti-bacterial activity, Bioscreen C growth curve: VRE. Type of experiment: cell-based, vancomycin-resistant Enterococcus (VRE). Particulars: Enterococcus, 35° C., 16 hours, negative control = 100, read-out: % of growth at 25 PPM compared to the negative control, VRE ATCC700221. Here is the method:
as §1, §8, §2, §3, §9

The test system of experiment [3] is E. faecalis ATTC29212 LMG 8222. Kind of experiment: Anti-bacterial activity, Bioscreen C growth curve: E. faecalis. Type of experiment: cell-based. Particulars: Enterococcus faecalis, LMG8222, 35° C., 16 hours, negative control = 100, read-out: % of growth at 25 PPM compared to the negative control, E. faecalis ATTC29212 LMG 8222. Here is the method: as §1, §8, §2, §3, §9

Experiment [4] relates to Candida albicans IHEM 10284 - ATCC 24433. Put plainly: Anti-fungal activity, Bioscreen C growth curve: Candida albicans (yeast). Type of experiment: cell-based. The conditions noted are these: Candida albicans, ATCC24433; 25 PPM; 35° C., 24 hours; negative control = 100; read-out: % of growth at a dose of 25 PPM compared to the negative control, Candida albicans IHEM 10284 - ATCC 24433. The procedure: as §1
The inoculum size of the yeast is standardized to 0.5-2.5×10^3 CFU/ml.
as §2, §3, §4, §5, §6, §7

The test system of experiment [5] is P. aeruginosa ATCC27853 LMG16217. Kind of experiment: Anti-bacterial activity, Bioscreen C growth curve: P. aeruginosa. Type of experiment: cell-based, Pseudomonas aeruginosa. Particulars: Pseudomonas aeruginosa; 25 PPM; 35° C., 16 hours; negative control = 100; read-out: % of growth at 25 PPM compared to the negative control, P. aeruginosa ATCC27853 LMG16217. Here is the method:
as §1, §8, §2, §3, §9

Experiment [6] deals with S. typhimurium ATTC700408. Put plainly: Anti-bacterial activity, Bioscreen C growth curve: S. typhimurium. Type of experiment: cell-based. The conditions noted are these: Salmonella enterica, LMG16217 / TYPHIMURIUM, 35° C., 16 hours, negative control = 100, read-out: % of growth at 25 PPM compared to the negative control, S. typhimurium ATTC700408 LMG16217. The procedure: as §1, §8, §2, §3, §9

`CO[C@H]1[C@@H]2OC(=O)CC/C=C/CCC(=O)OC[C@H]2OC[C@@H]1OC` [KPE00001006]: the activity at 25 ppm in experiment [1] came out at 62%; in experiment [2] it was 94.7%; in the experiment on MRSA ATCC33591 it was 99.7%; in the experiment on VRE ATCC700221, 96.5%; in experiment [3], 92.5%; in experiment [4], 93.1%. Also, the values for the activity at 25 ppm in experiment [5] and in experiment [6] were 87.3% and 94.6%, respectively.

For the compound `CO[C@@H]1[C@@H](OC)[C@H](Sc2ccccc2)O[C@@H]2COC(=O)CCC(O)C(O)CCC(=O)O[C@@H]12` (stereo partly shown) [KPE00001007], the activity at 25 ppm was 76% in experiment [1]; 94.9% in experiment [2]; 97.8% in the experiment on MRSA ATCC33591; 93% in the experiment on VRE ATCC700221; 97% in experiment [3]; 94.7% in experiment [4]. Also, the activity at 25 ppm was 86.2% in experiment [5] and 89.7% in experiment [6].

Consider `CO[C@@H]1[C@@H](OC)[C@H](Sc2ccccc2)O[C@@H]2COCCC/C=C/CCCO[C@@H]12` [KPE00001009.1], for which the activity at 25 ppm was 60% in experiment [1]; 98.3% in experiment [2]; 107% in the experiment on MRSA ATCC33591; 82% with VRE ATCC700221; 87.5% in experiment [3]; 93.9% in experiment [4]. For the same compound, the values for the activity at 25 ppm in experiment [5] and in experiment [6] were 91.6% and 90.1%, respectively.

For `CO[C@@H]1[C@@H](OC)[C@H](Sc2ccccc2)O[C@@H]2COCCC/C=C\CCCO[C@@H]12` [KPE00001009.2], the activity at 25 ppm in experiment [1] worked out at 54%; in experiment [2], 100%; in the experiment with MRSA ATCC33591, 111%; in the experiment on VRE ATCC700221, 86.4%; in experiment [3], 85.5%; in experiment [4], 103%. The activity at 25 ppm in experiment [5] is 67.6%; in experiment [6], 90.1%. Further, the “anti-mold activity, in words” value in experiment [1] (conclusion in text on Table 5) was “best anti-mold activity”.

With `CO[C@H]1[C@@H]2OC(=O)CCCCCCC(=O)OC[C@H]2OC[C@@H]1OC` [KPE00001010], the activity at 25 ppm in experiment [1] is 60%; in experiment [2], 102%; in the experiment with MRSA ATCC33591, 110%; with VRE ATCC700221, 93%; in experiment [3] it was 90.6%; in experiment [4], 95.5%. The activity at 25 ppm came to 80.7% in experiment [5] and 88.8% in experiment [6].

In the case of `CO[C@@H]1[C@@H](OC)[C@H](O)[C@@H](CO)O[C@H]1Sc1ccccc1` [KPE00001011], the activity at 25 ppm in experiment [1] was 76.4%; in experiment [2], 89%; in the experiment with MRSA ATCC33591, 90.5%; in the experiment with VRE ATCC700221 it was 79%; in experiment [3], 89%; in experiment [4] it was 79.3%. The values for the activity at 25 ppm in experiment [5] and in experiment [6] were 85% and 92.1%, respectively.

`CO[C@@H]1[C@@H](OC)[C@H](O)[C@@H](CO)O[C@H]1Cc1ccccc1` [KPE00001020]: the activity at 25 ppm is 78% in experiment [1]; 97.9% in experiment [2]; 99% in the experiment on MRSA ATCC33591; 99% with VRE ATCC700221; 98.4% in experiment [3]; 91% in experiment [4]. For the same compound, the activity at 25 ppm in experiment [5] worked out at 94.4%; in experiment [6] it was 92.3%.

Turning to `O=C1CC/C=C/CCC(=O)O[C@H]2[C@H](OCc3ccccc3)[C@@H](OCc3ccccc3)[C@H](Sc3ccccc3)O[C@@H]2CO1` [KPE00001037], the activity at 25 ppm amounted to 73% in experiment [1]; 98.5% in experiment [2]; 107% in the experiment on MRSA ATCC33591; 90% in the experiment with VRE ATCC700221; 97.6% in experiment [3]; 87.4% in experiment [4]. Besides, the values for the activity at 25 ppm in experiment [5] and in experiment [6] were 89.3% and 91%, respectively.

`CO[C@@H]1[C@@H](OC)[C@H](c2ccccc2)O[C@@H]2COC(=O)CCC3OC3CCC(=O)O[C@@H]12` (stereo partly shown) [KPE00001039]: the activity at 25 ppm in experiment [1] was 77%; in experiment [2] it was 97.7%; in the experiment with MRSA ATCC33591, 102%; in the experiment on VRE ATCC700221, 93%; in experiment [3], 94.1%; in experiment [4] it was 96.4%. In addition, the values for the activity at 25 ppm in experiment [5] and in experiment [6] were 91.3% and 97%, respectively.

Turning to `CO[C@@H]1[C@@H](OC)[C@H](c2ccccc2)O[C@@H]2COC(=O)CCC=CCCC(=O)O[C@@H]12` [KPE00001040], the activity at 25 ppm in experiment [1] is 64%; in experiment [2], 94%; in the experiment on MRSA ATCC33591, 99.7%; in the experiment with VRE ATCC700221 it was 83.4%; in experiment [3], 85.1%; in experiment [4], 101%. For the same compound, the activity at 25 ppm amounted to 78.5% in experiment [5] and 89% in experiment [6].

As for `CO[C@@H]1[C@@H](OC)[C@H](Sc2ccccc2)O[C@@H]2CNC(=O)CCC=CCCC(=O)O[C@@H]12` [KPE00001041], the activity at 25 ppm was determined as 81% in experiment [1]; 56.7% in experiment [2]; 75.6% in the experiment on MRSA ATCC33591; 93% in the experiment on VRE ATCC700221; 68.2% in experiment [3]; 78.1% in experiment [4]. Moreover, the values for the activity at 25 ppm in experiment [5] and in experiment [6] were 83.3% and 96.6%, respectively. For the same compound, the “anti-bacterial activity against gram-positive bacteria including MRSA, in words” value in the experiment with MRSA ATCC33591 (conclusion on Table 4) is “good anti-bacterial activity”.

In the case of `CO[C@@H]1[C@@H](OC)[C@H](Sc2ccccc2)O[C@@H]2CNC(=O)CC/C=C/CCCO[C@@H]12` [KPE00001042], the activity at 25 ppm in experiment [1] came out at 79%; in experiment [2], 97%; in the experiment with MRSA ATCC33591 it was 104%; in the experiment with VRE ATCC700221, 96%; in experiment [3], 93.3%; in experiment [4], 90.3%. For the same compound, the activity at 25 ppm in experiment [5] amounted to 94.7%; in experiment [6] it was 98%.

For `CO[C@H]1[C@H](OC)[C@H](OC)COC/C=C/COC[C@H]2OC[C@H](OC)[C@@H](OC)[C@@H]2OC(=O)NC[C@@H]1OC` [KPE00001056], the activity at 25 ppm in experiment [1] was 77%; in experiment [2], 105%; with MRSA ATCC33591, 113%; with VRE ATCC700221, 91%; in experiment [3] it was 111%; in experiment [4], 101%. For the same compound, the activity at 25 ppm in experiment [5] was 106%; in experiment [6], 93.7%.
